Results taken from US20170112941A1, “VE-CADHERIN BINDING BIOCONJUGATE” (Symic IP, LLC, priority 2015, published 2017).
Ends that are not written are not given here. * marks the point of attachment. NHNH2 = NN*

Legend:
[1] = molecular target: T1, Recombinant VE cadherin/Fc chimera (Homo sapiens, UniProt P33151); test: VE-Cadherin Binding Assay (plate ELISA with biotinylated molecule, streptavidin-HRP)
T1 construct: purchased R&D systems 938-VC
Experimental: Recombinant VE cadherin/Fc chimera (R&D systems, Prod#938-VC) was prepared in 1× Phosphate Buffered Saline (PBS, Gibco, pH 7.4) at 5 μg/mL. 50 μL of this solution was incubated in each well of Costar high bind plate (Prod #9018) overnight at 4° C. The plate was washed three times with PBS. VE-cadherin coated wells were blocked using 0.5% non-fat dry milk and 50 μg/mL heparin sodium in 1×PBS. Blocked plates were then treated with a concentration gradient of eHep-Bbeta (biotinylated) molecule (eHep-Bbeta, 1:8:50). The eHep-Bbeta was dissolved in Tris-NaCl—CaCl2 at 1 mg/mL, serial dilution (1:3) 50 μL 2 hour RT. At the end of the incubation plate was washed three times with PBS.
Ultra-Streptavidin HRP (ThermoFisher Scientific, Prod# N504) was diluted 1:500 using 1% BSA, 1×PBS and 0.05% tween was used to detect the biotinylated molecule bound to rh VE-cadherin coated plates. 100 μL of streptavidin solution was incubated in each well for 20 minutes at RT. The plate was washed three times with 1×PBS. 100 μL of TMB substrate solution (Abcam, slowest kinetic rate) was added to each well and developed for 20 minutes in the dark. 25 μL of stop solution (0.64 M H2SO4 in water) was added to stop the reaction and absorbance was read using Molecular Device i3 at 450 nm.
This assay may be used to determine the binding affinity of the bioconjugates as well as the peptides alone.

[2] = test system: acute renal ischemic model; test: Renal Ischemia Reperfusion (acute renal ischemic model); format: in vivo; details: rat
Experimental: Kidney damage was assessed by measuring serum creatinine levels 24 hours post procedure, and by creatinine clearance measured at 24 hours and 7 days post procedure. In this study, the ischemia time was reduced here to produce a more moderate injury, and the bioconjugate was delivered to the femoral vein, rather than directly to the renal artery, in order to reduce procedure time. See, Verma, et al. “Renal Endothelial Injury and Microvascular Dysfunction in Acute Kidney Injury.” Seminars in nephrology. Vol. 35. No. 1. WB Saunders, 2015 and Urbschat, et al. “Combined peri-ischemic administration of BP 15-42 in treating ischemia reperfusion injury of the mouse kidney.” Microvascular research 101 (2015): 48-54. All test articles were formulated in 1×PBS at 5 mg/mL and 500 μL were delivered for an approximate dose of 10 mg/kg. 1.4. […] Animals were closed and monitored during recovery for 24 hours. • 1.5.8. […] If creatinine clearance was positive in the positive control or test article at 7 days, the animal was survived until day 28, at which point creatinine clearance was again be measured. […] Serum creatinine was measured in each animal at baseline (prior to procedure) and 24 hours post-procedure. • 1.7. Creatinine clearance was measured at 1 and 7 days post procedure. • 1.8. […] Serum creatinine and creatinine clearance levels measured at 24 hours was compared between groups using an unpaired t-test. […]

[3] = test system: HUVECs; test: HUVEC culture, thrombin challenge, pMLC/phalloidin fluorescence imaging; format: cell-based, human; details: thrombin 1 U/mL, eHep-Bbeta 100 μg/mL, 10 minutes at 37° C., FIG. 3
Experimental: HUVECs were grown to confluence in 24-well tissue culture treated plates (10000 cells per cm^2) for 3 days. The cells were cultured in vascular basal medium (ATCC, prod# PCS-100-030) supplemented with 0.2% bovine brain extract (BBE), 10 mM L-glutamine, 5 U/mL heparin sodium, 1 μg/mL hydrocortisone hemisuccinate, 50 μg/mL ascorbic acid, and 20% fetal bovine serum. The wells were washed three times with 1× phosphate buffered saline (PBS), and then were treated with medium alone, medium supplemented with thrombin at 1 U/mL, medium supplemented with thrombin at 1 U/mL and eHep-Bbeta at 100 μg/mL, medium supplemented with thrombin at 1 U/mL and heparin at 100 μg/mL for 10 minutes at 37° C. The wells were then washed three times with 1×PBS. Each wash was for 5 minutes. The cells were then fixed using 4% formalin in 1×PBS for 15 minutes at room temperature, washed four times with 1×PBS (each wash was for 10 minutes). Blocking buffer containing 5% normal goat serum, and 0.3% Triton-X 100 in 1×PBS was prepared and 500 μL was added to each well. Blocking was done for 1 hour at room temperature. Antibody dilution buffer containing 1% BSA, and 0.3% Triton-X 100 in 1×PBS was prepared. 200 μL of Rabbit anti pMLC diluted 1:50 using antibody dilution buffer was added to each well and incubated overnight at 4° C. […] The wells were then imaged using an EVOS fluorescence microscope.

T1 sequence (P33151 with tags, fused parts or gaps limits assumed): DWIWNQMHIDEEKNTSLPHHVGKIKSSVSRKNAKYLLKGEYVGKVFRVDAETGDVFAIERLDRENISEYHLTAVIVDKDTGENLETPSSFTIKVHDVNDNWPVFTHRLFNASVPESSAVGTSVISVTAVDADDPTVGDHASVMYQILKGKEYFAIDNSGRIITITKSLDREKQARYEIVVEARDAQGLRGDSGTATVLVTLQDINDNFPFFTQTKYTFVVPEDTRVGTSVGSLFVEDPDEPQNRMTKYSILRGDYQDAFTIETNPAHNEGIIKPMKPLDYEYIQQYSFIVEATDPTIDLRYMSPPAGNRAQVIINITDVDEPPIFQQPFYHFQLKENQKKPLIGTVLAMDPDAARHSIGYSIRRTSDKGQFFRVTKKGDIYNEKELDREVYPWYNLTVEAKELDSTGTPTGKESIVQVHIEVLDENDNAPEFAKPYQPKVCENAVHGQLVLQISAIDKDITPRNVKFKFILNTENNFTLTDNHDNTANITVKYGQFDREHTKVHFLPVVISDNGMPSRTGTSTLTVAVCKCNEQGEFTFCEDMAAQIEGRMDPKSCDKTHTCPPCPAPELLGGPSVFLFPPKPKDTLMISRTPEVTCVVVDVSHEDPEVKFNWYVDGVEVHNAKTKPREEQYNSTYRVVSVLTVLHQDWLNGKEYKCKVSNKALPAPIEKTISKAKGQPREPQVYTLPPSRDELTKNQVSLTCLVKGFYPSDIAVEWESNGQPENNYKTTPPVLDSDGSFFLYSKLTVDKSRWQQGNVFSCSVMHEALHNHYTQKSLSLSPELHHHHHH

In the case of “eHep-Bbeta: Heparin (MWavg 16 kDa) coupled by EDC to Bbeta peptide GHRPLDKKREEAPSLRPAPPPISGGGYR(GSG)-hydrazide; about 3.7 peptides/heparin (GHRPLDKKREEAPSLRPAPPPISGGGYRGSG-NHNH2; also: coupled by EDC to heparin (MWavg 16 kDa), about 3.7 peptides/heparin, attachment site not given here)”, the “effect of Tris-NaCl-CaCl2 buffer on molecule binding to VE-cadherin” value ([1]; Tris-NaCl-CaCl2 buffer) is reported as “enhances molecule binding significantly”, the “binding to VE-cadherin” value ([1]; biotinylated eHep-Bbeta (1:8:50), 1 mg/mL in Tris-NaCl-CaCl2, serial dilution 1:3, 2 hour RT, absorbance 450 nm, FIG. 2) is reported as “binds to VE-cadherin in a dose dependent manner” and the “protection from renal damage upon reperfusion, compared with active control (peptide alone)” value ([2]; 30 minutes ischemia, approximate dose 10 mg/kg into femoral vein immediately after clamp removal, FIG. 4) is reported as “protects from renal damage upon reperfusion better than active control (peptide alone)”. For the same substance, the “kidney damage (serum creatinine 24 hours, creatinine clearance 24 hours and 7 days post procedure)” value ([2]; treatment immediately following renal reperfusion, approximate dose 10 mg/kg, femoral vein) was “inhibits kidney damage” and the “endothelial cell barrier function” value [3] was “preserves endothelial cell barrier function”.
